How the values were obtained:
Type in all cases: in vivo
[1] = system: barnyardgrass (Echinochloa crus-galli); test: Test A preemergence soil spray, visual injury rating 0-100; conditions: 10 days
Summary of the method: (§1)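 Directed preemergence spray onto seeded soil or postemergence spray onto 2-10 cm plants (loam plus sand); compound carried in surfactant-containing non-phytotoxic solvent. Injury rated by eye after 10 d greenhouse growth; 0 = no effect, 100 = complete control.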

[2] = system: blackgrass (Alopecurus myosuroides); test: as above; conditions: 10 days
Summary of the method: as §1

corn (Zea mays) [3] = test: as above; conditions: 10 days
Summary of the method: as §1

[4] = system: green foxtail (Setaria viridis); test: as above; conditions: 10 days
Summary of the method: as §1

kochia (Bassia scoparia) [5] = test: as above; conditions: 10 days
Summary of the method: as §1

[6] = system: oat, wild (wild oat, Avena fatua); test: as above; conditions: 10 days
Summary of the method: as §1

[7] = system: palmer (palmer amaranth, palmer pigweed, Amaranthus palmeri); test: as above; conditions: 10 days
Summary of the method: as §1

[8] = system: ragweed (common ragweed, Ambrosia artemisiifolia); test: as above; conditions: 10 days
Summary of the method: as §1

[9] = system: ryegrass, Italian (italian ryegrass, Lolium multiflorum); test: as above; conditions: 10 days
Summary of the method: as §1

soybean (Glycine max) [10] = test: as above; conditions: 10 days
Summary of the method: as §1

[11] = system: wheat (Triticum aestivum); test: as above; conditions: 10 days
Summary of the method: as §1

[12] = system: barnyardgrass (Echinochloa crus-galli); test: Test A postemergence application, visual injury rating 0-100
Summary of the method: as §1

[13] = system: blackgrass (Alopecurus myosuroides); test: as above
Summary of the method: as §1

corn (Zea mays) [14] = test: as above
Summary of the method: as §1

[15] = system: galium (catchweed bedstraw, Galium aparine); test: as above; conditions: 62 g ai/ha, postemergence, 10 days, 0 = no effect, 100 = complete control
Summary of the method: as §1

[16] = system: green foxtail (Setaria viridis); test: as above
Summary of the method: as §1

[17] = system: horseweed (Erigeron canadensis); test: as above
Summary of the method: as §1

kochia (Bassia scoparia) [18] = test: as above
Summary of the method: as §1

[19] = system: oat, wild (wild oat, Avena fatua); test: as above
Summary of the method: as §1

[20] = system: palmer (palmer amaranth, palmer pigweed, Amaranthus palmeri); test: as above
Summary of the method: as §1

[21] = system: ragweed (common ragweed, Ambrosia artemisiifolia); test: as above
Summary of the method: as §1

[22] = system: ryegrass, Italian (italian ryegrass, Lolium multiflorum); test: as above
Summary of the method: as §1

soybean (Glycine max) [23] = test: as above
Summary of the method: as §1

[24] = system: wheat (Triticum aestivum); test: as above
Summary of the method: as §1

[25] = system: barnyardgrass (Echinochloa crusgalli); test: Test B flooded paddy test, visual plant response rating 0-100; conditions: 250 g ai/ha, Flood, applied to paddy water, evaluated after 13 days
Summary of the method: (§2)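 In this flooded assay, 2-leaf seedlings received compound through the water layer, kept at 3 cm over the soil. Plants were held 13 days in a greenhouse and then visually compared with control pots.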

[26] = system: ducksalad (Heteranthera limosa); test: as above; conditions: 250 g ai/ha, Flood, applied to paddy water, evaluated after 13 days
Summary of the method: as §2

rice (Oryza sativa) = test: as above; conditions: 250 g ai/ha, Flood, applied to paddy water, evaluated after 13 days
Summary of the method: as §2

[27] = system: sedge, umbrella (small-flower umbrella sedge, Cyperus difformis); test: as above; conditions: 250 g ai/ha, Flood, applied to paddy water, evaluated after 13 days
Summary of the method: as §2

[28] = 62 g ai/ha, 0 = no effect, 100 = complete control
[29] = 62 g ai/ha, postemergence, 10 days, 0 = no effect, 100 = complete control
[30] = Postemergence, 16 g ai/ha, greenhouse 10 days, 0 no effect, 100 complete control

Compound: CC1(C(=O)NC2CC=C(C(=O)O)C2)CN(c2cc(F)cc(Cl)c2)C(=O)O1 (stereo not drawn) [Compound 160]
- Barnyardgrass plant response rating ([1]; 16 g ai/ha, 0 to 100 scale): 0
- Barnyardgrass plant response rating (0-100) [1, 28]: 0
- Blackgrass plant response rating ([2]; 16 g ai/ha, 0 to 100 scale): 0
- Blackgrass plant response rating (0-100) [2, 28]: 0
- Corn plant response rating (corn (Zea mays) [3]; 16 g ai/ha, 0 to 100 scale): 0
- Corn plant response rating (0-100) (corn (Zea mays) [3]; [28]): 0
- Foxtail, Green plant response rating ([4]; 16 g ai/ha, 0 to 100 scale): 0
- Foxtail, Green plant response rating (0-100) [4, 28]: 0
- Kochia plant response rating (kochia (Bassia scoparia) [5]; 16 g ai/ha, 0 to 100 scale): 0
- Kochia plant response rating (0-100) (kochia (Bassia scoparia) [5]; [28]): 0
- Oat, Wild plant response rating ([6]; 16 g ai/ha, 0 to 100 scale): 0
- Oat, Wild plant response rating (0-100) [6, 28]: 0
- Pigweed, Palmer plant response rating ([7]; 16 g ai/ha, 0 to 100 scale): 0
- Pigweed, Palmer plant response rating (0-100) [7, 28]: 0
- Ragweed plant response rating ([8]; 16 g ai/ha, 0 to 100 scale): 0
- Ragweed plant response rating (0-100) [8, 28]: 0
- Ryegrass, Italian plant response rating ([9]; 16 g ai/ha, 0 to 100 scale): 0
- Ryegrass, Italian plant response rating (0-100) [9, 28]: 0
- Soybean plant response rating (soybean (Glycine max) [10]; 16 g ai/ha, 0 to 100 scale): 0
- Soybean plant response rating (0-100) (soybean (Glycine max) [10]; [28]): 0
- Wheat plant response rating ([11]; 16 g ai/ha, 0 to 100 scale): 0
- Wheat plant response rating (0-100) [11, 28]: 0
- Barnyardgrass plant response rating (0-100) [12, 29]: 0
- Barnyardgrass plant response rating (0 to 100 scale) [12, 30]: 0
- Blackgrass plant response rating (0-100) [13, 29]: 0
- Blackgrass plant response rating (0 to 100 scale) [13, 30]: 0
- Corn plant response rating (0-100) (corn (Zea mays) [14]; [29]): 0
- Corn plant response rating (0 to 100 scale) (corn (Zea mays) [14]; [30]): 0
- Galium plant response rating (0-100) [15]: 0
- Foxtail, Green plant response rating (0-100) [16, 29]: 0
- Foxtail, Green plant response rating (0 to 100 scale) [16, 30]: 0
- Horseweed plant response rating (0-100) [17, 29]: 0
- Horseweed plant response rating (0 to 100 scale) [17, 30]: 0
- Kochia plant response rating (0-100) (kochia (Bassia scoparia) [18]; [29]): 0
- Kochia plant response rating (0 to 100 scale) (kochia (Bassia scoparia) [18]; [30]): 0
- Oat, Wild plant response rating (0-100) [19, 29]: 0
- Oat, Wild plant response rating (0 to 100 scale) [19, 30]: 0
- Pigweed, Palmer plant response rating (0-100) [20, 29]: 0
- Pigweed, Palmer plant response rating (0 to 100 scale) [20, 30]: 0
- Ragweed plant response rating (0-100) [21, 29]: 0
- Ragweed plant response rating (0 to 100 scale) [21, 30]: 0
- Ryegrass, Italian plant response rating (0-100) [22, 29]: 0
- Ryegrass, Italian plant response rating (0 to 100 scale) [22, 30]: 0
- Soybean plant response rating (0-100) (soybean (Glycine max) [23]; [29]): 0
- Soybean plant response rating (0 to 100 scale) (soybean (Glycine max) [23]; [30]): 0
- Wheat plant response rating (0-100) [24, 29]: 0
- Wheat plant response rating (0 to 100 scale) [24, 30]: 0
- Plant response rating, Barnyardgrass (0 to 100 scale, 0 is no effect and 100 is complete control) [25]: 0
- Plant response rating, Ducksalad (0 to 100 scale, 0 is no effect and 100 is complete control) [26]: 55
- Plant response rating, Rice (0 to 100 scale, 0 is no effect and 100 is complete control) (rice (Oryza sativa)): 0
- Plant response rating, Sedge, Umbrella (0 to 100 scale, 0 is no effect and 100 is complete control) [27]: 25

— patent US20260285850A1, “SUBSTITUTED OXAZOLIDINONES AND IMIDAZOLINONES AS HERBICIDES” (FMC CORPORATION, priority 2023, published 2026)
